Test results as given in publication PMC11371790, “Combination of transcriptomic and proteomic approaches helps unravel the mechanisms of luteolin in inducing liver cancer cell death via targeting AKT1 and SRC” (Frontiers in Pharmacology, 2024).

Key:
SRC = SRC (Homo sapiens, UniProt P12931); assay: bio-layer interferometry (biotinylated SRC on SSA sensor, Octet K2); assay type: binding
AKT1 = AKT1 (Homo sapiens, UniProt P31749); assay: bio-layer interferometry (biotinylated active AKT1, Carna […]-101, on SSA sensor, Octet K2); assay type: binding
Sequence of AKT1 (P31749 whole entry): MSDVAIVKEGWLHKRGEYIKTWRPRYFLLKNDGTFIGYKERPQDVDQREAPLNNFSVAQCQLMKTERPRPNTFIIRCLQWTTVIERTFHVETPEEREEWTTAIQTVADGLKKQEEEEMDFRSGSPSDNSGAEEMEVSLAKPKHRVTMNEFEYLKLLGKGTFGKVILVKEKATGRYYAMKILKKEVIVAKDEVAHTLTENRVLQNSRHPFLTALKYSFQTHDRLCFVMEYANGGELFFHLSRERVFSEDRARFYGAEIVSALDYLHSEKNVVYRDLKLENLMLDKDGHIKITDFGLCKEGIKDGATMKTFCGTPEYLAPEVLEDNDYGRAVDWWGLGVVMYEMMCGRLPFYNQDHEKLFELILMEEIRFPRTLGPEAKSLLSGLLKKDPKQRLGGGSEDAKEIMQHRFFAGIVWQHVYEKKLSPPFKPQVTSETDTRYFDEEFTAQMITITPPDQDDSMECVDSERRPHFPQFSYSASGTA

Sequence of SRC (P12931 2-536): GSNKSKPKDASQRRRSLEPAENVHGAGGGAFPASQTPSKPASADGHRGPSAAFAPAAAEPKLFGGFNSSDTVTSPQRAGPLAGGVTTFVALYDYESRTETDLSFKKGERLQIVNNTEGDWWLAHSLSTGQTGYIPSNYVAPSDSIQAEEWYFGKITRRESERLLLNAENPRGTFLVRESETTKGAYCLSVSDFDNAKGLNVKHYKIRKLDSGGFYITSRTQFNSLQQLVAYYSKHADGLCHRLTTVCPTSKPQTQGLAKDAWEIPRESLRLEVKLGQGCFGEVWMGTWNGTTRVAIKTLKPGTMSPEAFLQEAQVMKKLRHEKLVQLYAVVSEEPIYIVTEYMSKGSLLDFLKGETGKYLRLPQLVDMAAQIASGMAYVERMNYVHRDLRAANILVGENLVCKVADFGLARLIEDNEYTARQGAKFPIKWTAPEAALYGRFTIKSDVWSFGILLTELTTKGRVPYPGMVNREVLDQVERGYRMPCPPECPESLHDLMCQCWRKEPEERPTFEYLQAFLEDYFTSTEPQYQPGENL

Compound: O=c1cc(-c2ccc(O)c(O)c2)oc2cc(O)cc(O)c12 [Luteolin]
- Kd (SRC): 1.7 µM
- Kd (AKT1): 7.86 µM
